The record followed here is PubChem BioAssay (NCI).

The term TGI denotes the concentration at which net growth stops. Read a low TGI as greater sensitivity of the cells.

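Compound exposure: 48 hours, 5 concentrations, 96-well plates. At the TGI there is no net growth.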 Where a SMILES comes first, the peptide text is derived from it. The star is where a group is joined. Cbz = O=C(OCc1ccccc1)* Some results are limits rather than exact numbers.

Test systems include CAKI-1 renal; SN12C renal; SR leukemia; U251 CNS; SK-MEL-28 melanoma; HCT-116 colon; OVCAR-4 ovarian; NCI-H522 lung; NCI-H226 lung; SW-620 colon; M14 melanoma; UACC-257 melanoma; SNB-19 CNS; OVCAR-3 ovarian; OVCAR-5 ovarian; 786-0 renal; HCT-15 colon; NCI/ADR-RES ovarian; RXF 393 renal; PC-3 prostate.
Assay in all cases: DTP human tumour cell line panel, 48 h

With `COc1ccc(NS(=O)c2ccc(OC)cc2)cc1` (centres undefined), the TGI in the test on CAKI-1 renal is over 100 µM; in the test on SN12C renal it was over 100 µM; with SR leukemia, over 100 µM; in the test with U251 CNS, 34.2 µM; in the test on SK-MEL-28 melanoma, over 100 µM; with HCT-116 colon it was over 100 µM. Moreover, the TGI with OVCAR-4 ovarian, in the test with NCI-H522 lung, in the test on NCI-H226 lung, in the test on SW-620 colon, in the test on M14 melanoma and in the test with UACC-257 melanoma was over 100 µM throughout. In addition, the TGI in the test with SNB-19 CNS, in the test with OVCAR-3 ovarian, with OVCAR-5 ovarian, in the test with 786-0 renal, with HCT-15 colon and with NCI/ADR-RES ovarian was over 100 µM in each case.

Turning to `CCCCc1ccc(Nc2nc(N)c3ncn(COCCO)c3n2)cc1`, the TGI with CAKI-1 renal is over 100 µM; in the test on SN12C renal, over 100 µM; in the test with SR leukemia, over 100 µM; with U251 CNS, 66.4 µM; with RXF 393 renal, 98.2 µM; in the test with HCT-116 colon it was 62.2 µM. Besides, the TGI in the test with OVCAR-4 ovarian is over 100 µM; in the test on NCI-H522 lung, 69.7 µM; in the test on NCI-H226 lung it was over 100 µM; in the test with SW-620 colon it was over 100 µM; with M14 melanoma it was 45.3 µM; in the test with UACC-257 melanoma it was 44.4 µM. The TGI with SNB-19 CNS is over 100 µM; in the test on OVCAR-3 ovarian, 40.3 µM; in the test with OVCAR-5 ovarian, over 100 µM; with 786-0 renal, 65.4 µM; in the test on HCT-15 colon, 38.6 µM; in the test with NCI/ADR-RES ovarian, 71.7 µM.

With `CCOC(=O)C(CC(=O)OC)NC(=O)C(CC(=O)OC)NC(=O)C(CC(=O)OC)NC(=O)C(CC(=O)OC)NC(=O)OCc1ccccc1` (centres undefined) (Cbz-D(OMe)D(OMe)D(OMe)D(OMe)-OEt; configuration not given here), the TGI in the test on SN12C renal, in the test on SR leukemia, in the test on U251 CNS, with PC-3 prostate, with SK-MEL-28 melanoma and with RXF 393 renal was over 100 µM throughout. The concentration for total growth inhibition (TGI) in the test with HCT-116 colon, in the test on NCI-H226 lung, in the test on SW-620 colon, in the test with M14 melanoma, in the test with UACC-257 melanoma and with SNB-19 CNS was over 100 µM each time. Also, the TGI in the test with OVCAR-5 ovarian, with 786-0 renal and in the test with HCT-15 colon was over 100 µM each time.

As to `CC(C)(c1ccc(OC#N)cc1)c1ccc(OC#N)cc1`, the concentration for total growth inhibition (TGI) in the test on CAKI-1 renal was over 100 µM; with SN12C renal, over 100 µM; in the test with SR leukemia it was 50.5 µM; with U251 CNS it was over 100 µM; in the test on SK-MEL-28 melanoma, over 100 µM; with RXF 393 renal, over 100 µM. In addition, the TGI is over 61 µM in the test with HCT-116 colon; over 100 µM in the test on OVCAR-4 ovarian; over 31.6 µM in the test on NCI-H522 lung; over 100 µM with NCI-H226 lung; over 100 µM in the test with SW-620 colon; over 100 µM with M14 melanoma. Further, the TGI with UACC-257 melanoma is over 100 µM; in the test on SNB-19 CNS it was over 100 µM; in the test on OVCAR-3 ovarian, over 100 µM; with OVCAR-5 ovarian, over 100 µM; with 786-0 renal, over 100 µM; with HCT-15 colon, 39.7 µM.

On to `O=C(Cc1ccccc1)NNc1nc(NNC(=O)c2ccncc2)nc(Nc2ccc(Cl)cc2)n1`, for which the TGI in the test with CAKI-1 renal, in the test on SN12C renal, with SR leukemia, in the test on U251 CNS, in the test on SK-MEL-28 melanoma and in the test on OVCAR-4 ovarian was over 10 µM each time. Also, the TGI with SW-620 colon, in the test with M14 melanoma, with UACC-257 melanoma, in the test on 786-0 renal, in the test on HCT-15 colon and in the test on NCI/ADR-RES ovarian was over 10 µM throughout.

Consider `O=C(CC(C(=O)c1cccs1)c1ccsc1)c1ccco1` (centres undefined), for which the TGI in the test on CAKI-1 renal was 77.3 µM; with SN12C renal it was over 100 µM; with SR leukemia it was over 100 µM; in the test with U251 CNS, 49.6 µM; in the test with SK-MEL-28 melanoma it was over 100 µM; in the test with RXF 393 renal, 49.7 µM. For the same compound, the TGI was 56.5 µM with HCT-116 colon; 54.1 µM with NCI-H522 lung; over 100 µM in the test on NCI-H226 lung; over 100 µM in the test on SW-620 colon; 43.5 µM with M14 melanoma; over 100 µM in the test on UACC-257 melanoma. The TGI is over 100 µM in the test on OVCAR-3 ovarian; over 100 µM with OVCAR-5 ovarian; over 100 µM with 786-0 renal; 49.5 µM in the test with HCT-15 colon; 43.6 µM in the test on NCI/ADR-RES ovarian.

With `Cc1nn(C(=O)Cc2ccccc2)c2c1C(c1ccccc1[N+](=O)[O-])SC(N)=N2` (centres undefined), the TGI with CAKI-1 renal, in the test with SN12C renal, in the test with SR leukemia, in the test with PC-3 prostate, with SK-MEL-28 melanoma and in the test with HCT-116 colon was over 100 µM in each case. Besides, the TGI in the test with NCI-H522 lung, with NCI-H226 lung, in the test with SW-620 colon, in the test with M14 melanoma, in the test on UACC-257 melanoma and in the test with SNB-19 CNS was over 100 µM throughout. For the same compound, the TGI in the test with 786-0 renal and in the test on HCT-15 colon was over 100 µM each time.

Take `C/C(=N\NC(=S)NNC(=S)N(C)c1ccccc1)c1ccccn1`: the total growth inhibition concentration (TGI) in the test on CAKI-1 renal was 8.39 µM; with SN12C renal, 12.8 µM; in the test with U251 CNS it was over 100 µM; in the test with SK-MEL-28 melanoma, over 100 µM; in the test with RXF 393 renal, 17 µM; in the test with HCT-116 colon, over 100 µM. For the same compound, the concentration for total growth inhibition (TGI) was over 100 µM in the test on OVCAR-4 ovarian; 6.85 µM with NCI-H226 lung; over 100 µM with SW-620 colon; 2.56 µM in the test with M14 melanoma; over 100 µM with UACC-257 melanoma; over 100 µM with SNB-19 CNS. Moreover, the TGI in the test with OVCAR-3 ovarian is over 100 µM; in the test with OVCAR-5 ovarian it was over 100 µM; with 786-0 renal, over 47.2 µM; with HCT-15 colon it was over 100 µM; in the test with NCI/ADR-RES ovarian it was 55.4 µM.
